{"source": "patent US6025375A", "about": "“4,5-diaryloxazole derivatives” (Fujisawa Pharmaceutical Co., Ltd., priority 1993, dated 2000)", "key": {"[1]": {"tested_on": "mean arterial blood pressure", "assay": "Effect on mean arterial blood pressure in conscious rats", "assay_type": "in vivo", "details": "3.2 mg/kg, orally, suspended in 0.5% methyl cellulose; conscious male Sprague-Dawley rats", "description": "ii) Effect on mean arterial blood pressure in conscious rats\nSodium [3-[[(1S)-2-(4,5-diphenyloxazol-2-yl)-2-cyclohexen-1-yl]methyl]phenoxy]acetate\nMale Sprague-Dawley rats, aged 8-9 weeks, were anesthetized with diethyl ether and a polyethylene cannula filled with heparin solution was inserted into the femoral artery of the rats to measure mean blood pressure. Mean blood pressure was measured with a pressure transducer and recorded on a polygraph. Two hours after operation, the test compound suspended in 0.5% methyl cellulose was administered orally in a volume of 5 ml/kg. Oral hypotensive effect of the test compound was expressed as the maximal decrease (R max). Briefly, R max was expressed as maximal % change compared to mean blood pressure prior to the administration of the test compound."}, "[2]": {"tested_on": "human platelet aggregation induced by ADP", "assay": "Inhibition of human platelet aggregation induced by ADP", "assay_type": "cell-based", "details": "3.2 × 10^-7 M, platelet rich plasma, ADP 2.5 μM, mean ± S.E.", "description": "i) Inhibition of human platelet aggregation induced by ADP\nIsomer C obtained in Example 2.\nHuman blood was obtained from healthy volunteers and mixed with 1/10 volume of 3.8% sodium citrate, pH 7.4. The citrate blood was centrifuged at 150×g for 10 minutes and the platelet rich plasma (PRP) was removed. The remaining blood was centrifuged for a further 10 minutes at 1500×g to prepare the platelet poor plasma (PPP), which was used as a reference for platelet aggregation. Aggregation studies were carried out using HEMATRACER 801 (NBS, Japan), a 8 channel aggregometer. 25 μl sample solution and 225 μl of PRP were mixed and stirred at 1000 rpm for 2 minutes at 37° C. Aggregation was induced by ADP solution at the final concentration of 2.5 μM."}}}
{"smiles": "O=C(O)COc1cccc(C[C@@H]2CCCC=C2c2nc(-c3ccccc3)c(-c3ccccc3)o2)c1", "note": "[(+)-Sodium [3-[[(1S)-2-(4,5-diphenyloxazol-2-yl)-2-cyclohexen-1-yl]methyl]phenoxy] acetate]", "values": [{"measurement": "R max (%): maximal % change (decrease) in mean blood pressure compared to that prior to administration", "setting": "[1]", "result": 31.3, "unit": "%"}]}
{"smiles": "O=C(O)COc1cccc(CC2CCCCC2c2nc(-c3ccccc3)c(-c3ccccc3)o2)c1", "note": "(single isomer, unassigned) [Isomer C, cis- or trans-1-[(3-carboxymethoxyphenyl)methyl]-2-(4,5-diphenyloxazol-2-yl)cyclohexane]", "values": [{"measurement": "inhibition at 0.32 µM", "setting": "[2]", "result": "100 ± 0.4", "unit": "%"}]}
